Experimental data: the supplement of paper PMC10627819

Legend:
[1] = tested on: S. aureus Newman; experiment: Bliss interaction score (quartile over a dose matrix) (fitness difference); higher = more antagonism (negative = synergy)
Procedure, shortened: (§1)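 Each plate was normalised to the robust mean of its own no-drug wells, using OD595 at entry into stationary phase, with values capped at 1. This normalised growth is the fitness value. The Bliss score is the difference between observed and product-expected fitness, with single-drug fitness inferred from the combination data and quartiles taken over technical, biological and donor/recipient replicates.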

[2] = tested on: S. aureus DSM 20231; experiment: as above
Procedure, shortened: as §1

[3] = tested on: S. pneumoniae D39V; experiment: as above
Procedure, shortened: as §1

[4] = tested on: B. subtilis 168; experiment: as above
Procedure, shortened: as §1

[5] = tested on: S. pneumoniae D39V; experiment: fitness (endpoint OD595 vs no drug) (fraction); higher = more growth
Procedure, shortened: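 Fitness was measured as bacterial growth in 384-well plates inoculated at OD595 0.01 (30 µl, or 55 µl for S. pneumoniae). Media were TSB, LB Lennox or CY, at 37 °C. OD595 was read every 30 min for 14 h and background-subtracted against the first reading. Fitness is OD595 at the transition into stationary phase divided by the robust mean of no-drug control wells, capped at 1.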
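Throughout, for Bliss interaction score (quartile over a dose matrix): first quartile when negative (synergy) and third quartile when positive (antagonism).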

`Clc1ccc(COC(Cn2ccnc2)c2ccc(Cl)cc2Cl)c(Cl)c1` (centres undefined) [Miconazole] + CN(C)c1cc(NC(=O)CNC(C)(C)C)c(O)c2c1C[C@H]1C[C@H]3[C@H](N(C)C)C(O)=C(C(N)=O)C(=O)[C@@]3(O)C(O)=C1C2=O [Tigecycline] was tested, and the Bliss interaction score [1] was 0.0412, the Bliss interaction score [2] was 0.0455 and the Bliss interaction score [3] was 0.0957. The Bliss interaction score [4] was 0.0621, the fitness ([5]; first compound 1.073 µg/mL, partner 0.65 µg/mL) was 0.992 and the fitness ([5]; first compound 1.073 µg/mL, partner 1.3 µg/mL) was at least 1. For the same molecule, the fitness ([5]; first compound 1.073 µg/mL, partner 2.6 µg/mL) was 0.999, the fitness ([5]; first compound 1.25 µg/mL, partner 0.65 µg/mL) was 0.974 and the fitness ([5]; first compound 1.25 µg/mL, partner 1.3 µg/mL) was 0.997. For the same molecule, the fitness ([5]; first compound 1.25 µg/mL, partner 2.6 µg/mL) was 0.982, the fitness ([5]; first compound 2.145 µg/mL, partner 0.65 µg/mL) was 0.998 and the fitness ([5]; first compound 2.145 µg/mL, partner 1.3 µg/mL) was 0.992. It also gave a fitness ([5]; first compound 2.145 µg/mL, partner 2.6 µg/mL) of at least 1, a fitness ([5]; first compound 2.5 µg/mL, partner 0.65 µg/mL) of 0.982 and a fitness ([5]; first compound 2.5 µg/mL, partner 1.3 µg/mL) of 0.991. For the same molecule, the fitness ([5]; first compound 2.5 µg/mL, partner 2.6 µg/mL) was 0.993, the fitness ([5]; first compound 4.29 µg/mL, partner 0.65 µg/mL) was at least 1 and the fitness ([5]; first compound 4.29 µg/mL, partner 1.3 µg/mL) was at least 1. For the same molecule, the fitness ([5]; first compound 4.29 µg/mL, partner 2.6 µg/mL) was 0.998, the fitness ([5]; first compound 5 µg/mL, partner 0.65 µg/mL) was at least 1 and the fitness ([5]; first compound 5 µg/mL, partner 1.3 µg/mL) was at least 1. For the same molecule, the fitness ([5]; first compound 5 µg/mL, partner 2.6 µg/mL) was 0.927.

In the case of `Clc1ccc(COC(Cn2ccnc2)c2ccc(Cl)cc2Cl)c(Cl)c1` (centres undefined) [Miconazole] + CN(N=O)C(=O)N[C@@H](C=O)[C@@H](O)[C@H](O)[C@H](O)CO [Streptozotocin], the Bliss interaction score [1] is reported as 0.0421, the Bliss interaction score [2] is reported as 0.039 and the Bliss interaction score [3] is reported as 0.0621. For the same molecule, the Bliss interaction score [4] was 0.143, the fitness ([5]; first compound 1.073 µg/mL, partner 1.2 µg/mL) was 0.997 and the fitness ([5]; first compound 1.073 µg/mL, partner 2.4 µg/mL) was 0.989. For the same molecule, the fitness ([5]; first compound 1.073 µg/mL, partner 4.8 µg/mL) was at least 1, the fitness ([5]; first compound 1.25 µg/mL, partner 1.2 µg/mL, one replicate) was 0.924 and the fitness ([5]; first compound 1.25 µg/mL, partner 2.4 µg/mL, one replicate) was 0.971. It also gave a fitness ([5]; first compound 1.25 µg/mL, partner 4.8 µg/mL, one replicate) of 0.788, a fitness ([5]; first compound 2.145 µg/mL, partner 1.2 µg/mL) of 0.982 and a fitness ([5]; first compound 2.145 µg/mL, partner 2.4 µg/mL) of 0.988. The fitness ([5]; first compound 2.145 µg/mL, partner 4.8 µg/mL) was 0.977, the fitness ([5]; first compound 2.5 µg/mL, partner 1.2 µg/mL, one replicate) was 0.903 and the fitness ([5]; first compound 2.5 µg/mL, partner 2.4 µg/mL, one replicate) was 0.94. It also gave a fitness ([5]; first compound 2.5 µg/mL, partner 4.8 µg/mL, one replicate) of 0.813, a fitness ([5]; first compound 4.29 µg/mL, partner 1.2 µg/mL) of 0.939 and a fitness ([5]; first compound 4.29 µg/mL, partner 2.4 µg/mL) of 0.938. The fitness ([5]; first compound 4.29 µg/mL, partner 4.8 µg/mL) was 0.923, the fitness ([5]; first compound 5 µg/mL, partner 1.2 µg/mL, one replicate) was 0.942 and the fitness ([5]; first compound 5 µg/mL, partner 2.4 µg/mL, one replicate) was at least 1. It also gave a fitness ([5]; first compound 5 µg/mL, partner 4.8 µg/mL, one replicate) of 0.841.

In the case of `Cc1cc(NS(=O)(=O)c2ccc(N)cc2)no1` [Sulfamethoxazol] + CC[C@H]1OC(=O)[C@H](C)C(=O)[C@H](C)[C@@H](O[C@@H]2O[C@H](C)C[C@H](N(C)C)[C@H]2O)[C@](C)(OC)C[C@@H](C)C(=O)[C@H](C)[C@H]2N(CCCCn3cnc(-c4cccnc4)c3)C(=O)O[C@]12C [Telithromycin], the Bliss interaction score [1] is reported as 0.0359, the Bliss interaction score [2] is reported as 0.034 and the Bliss interaction score [3] is reported as -0.0611. For the same molecule, the Bliss interaction score [4] was -0.0301.

Molecule `Cc1cc(NS(=O)(=O)c2ccc(N)cc2)no1` [Sulfamethoxazol] + Oc1cc(Cl)ccc1Oc1ccc(Cl)cc1Cl [Triclosan] has a Bliss interaction score [1] of 0.0302, a Bliss interaction score [2] of 0.0924 and a Bliss interaction score [3] of -0.0608. The Bliss interaction score [4] was 0.0965.

`CC[C@H]1OC(=O)[C@H](C)C(=O)[C@H](C)[C@@H](O[C@@H]2O[C@H](C)C[C@H](N(C)C)[C@H]2O)[C@](C)(OC)C[C@@H](C)C(=O)[C@H](C)[C@H]2N(CCCCn3cnc(-c4cccnc4)c3)C(=O)O[C@]12C` [Telithromycin] + CC1=C\[C@@H](O)CC(=O)Cc2nc(co2)C(=O)N2CCC=C2C(=O)O[C@H](C(C)C)[C@H](C)/C=C/C(=O)NC\C=C\1 [Virginiamycin M1] was tested, and the Bliss interaction score [1] was -0.0314, the Bliss interaction score [2] was -0.0529 and the Bliss interaction score [3] was -0.037. The Bliss interaction score [4] was -0.0239.

`CC[C@H]1OC(=O)[C@H](C)C(=O)[C@H](C)[C@@H](O[C@@H]2O[C@H](C)C[C@H](N(C)C)[C@H]2O)[C@](C)(OC)C[C@@H](C)C(=O)[C@H](C)[C@H]2N(CCCCn3cnc(-c4cccnc4)c3)C(=O)O[C@]12C` [Telithromycin] + CN(C)c1cc(NC(=O)CNC(C)(C)C)c(O)c2c1C[C@H]1C[C@H]3[C@H](N(C)C)C(O)=C(C(N)=O)C(=O)[C@@]3(O)C(O)=C1C2=O [Tigecycline] was tested, and the Bliss interaction score [1] was 0.0378, the Bliss interaction score [2] was -0.0261 and the Bliss interaction score [3] was -0.107. It also gave a Bliss interaction score [4] of 0.0616.

`CC[C@H]1OC(=O)[C@H](C)C(=O)[C@H](C)[C@@H](O[C@@H]2O[C@H](C)C[C@H](N(C)C)[C@H]2O)[C@](C)(OC)C[C@@H](C)C(=O)[C@H](C)[C@H]2N(CCCCn3cnc(-c4cccnc4)c3)C(=O)O[C@]12C` [Telithromycin] + CN[C@H](CC(C)C)C(=O)N[C@H]1C(=O)N[C@@H](CC(N)=O)C(=O)N[C@H]2C(=O)N[C@H]3C(=O)N[C@H](C(=O)N[C@H](C(=O)O)c4cc(O)cc(O)c4-c4cc3ccc4O)[C@H](O)c3ccc(c(Cl)c3)Oc3cc2cc(c3O[C@@H]2O[C@H](CO)[C@@H](O)[C@H](O)[C@H]2O[C@H]2C[C@](C)(N)[C@H](O)[C@H](C)O2)Oc2ccc(cc2Cl)[C@H]1O [Vancomycin] gave a Bliss interaction score [1] of 0.0259, a Bliss interaction score [2] of -0.0478 and a Bliss interaction score [3] of 0.0519. The Bliss interaction score [4] was 0.0487.

Work on `CC[C@H]1OC(=O)[C@H](C)C(=O)[C@H](C)[C@@H](O[C@@H]2O[C@H](C)C[C@H](N(C)C)[C@H]2O)[C@](C)(OC)C[C@@H](C)C(=O)[C@H](C)[C@H]2N(CCCCn3cnc(-c4cccnc4)c3)C(=O)O[C@]12C` [Telithromycin] + COc1cc(Cc2cnc(N)nc2N)cc(OC)c1OC [Trimethoprim] yielded a Bliss interaction score [1] of 0.0595, a Bliss interaction score [2] of 0.0276 and a Bliss interaction score [3] of 0.0323. It also gave a Bliss interaction score [4] of -0.243.

Molecule `CC[C@H]1OC(=O)[C@H](C)C(=O)[C@H](C)[C@@H](O[C@@H]2O[C@H](C)C[C@H](N(C)C)[C@H]2O)[C@](C)(OC)C[C@@H](C)C(=O)[C@H](C)[C@H]2N(CCCCn3cnc(-c4cccnc4)c3)C(=O)O[C@]12C` [Telithromycin] + Oc1cc(Cl)ccc1Oc1ccc(Cl)cc1Cl [Triclosan] has a Bliss interaction score [1] of 0.0266, a Bliss interaction score [2] of -0.0253 and a Bliss interaction score [3] of 0.0532. It also gave a Bliss interaction score [4] of 0.017.

In the case of `Oc1cc(Cl)ccc1Oc1ccc(Cl)cc1Cl` [Triclosan] + CC1=C\[C@@H](O)CC(=O)Cc2nc(co2)C(=O)N2CCC=C2C(=O)O[C@H](C(C)C)[C@H](C)/C=C/C(=O)NC\C=C\1 [Virginiamycin M1], the Bliss interaction score [1] is reported as 0.034, the Bliss interaction score [2] is reported as 0.108 and the Bliss interaction score [3] is reported as 0.0386. For the same molecule, the Bliss interaction score [4] was 0.0973.

`Oc1cc(Cl)ccc1Oc1ccc(Cl)cc1Cl` [Triclosan] + CN[C@H](CC(C)C)C(=O)N[C@H]1C(=O)N[C@@H](CC(N)=O)C(=O)N[C@H]2C(=O)N[C@H]3C(=O)N[C@H](C(=O)N[C@H](C(=O)O)c4cc(O)cc(O)c4-c4cc3ccc4O)[C@H](O)c3ccc(c(Cl)c3)Oc3cc2cc(c3O[C@@H]2O[C@H](CO)[C@@H](O)[C@H](O)[C@H]2O[C@H]2C[C@](C)(N)[C@H](O)[C@H](C)O2)Oc2ccc(cc2Cl)[C@H]1O [Vancomycin] was tested, and the Bliss interaction score [1] was 0.0453, the Bliss interaction score [2] was 0.0768 and the Bliss interaction score [3] was 0.0833. For the same molecule, the Bliss interaction score [4] was 0.0377.

In the case of `Oc1cc(Cl)ccc1Oc1ccc(Cl)cc1Cl` [Triclosan] + COc1cc(Cc2cnc(N)nc2N)cc(OC)c1OC [Trimethoprim], the Bliss interaction score [1] is reported as 0.0267, the Bliss interaction score [2] is reported as -0.0451 and the Bliss interaction score [3] is reported as 0.113. For the same molecule, the Bliss interaction score [4] was 0.13.
